Measured values reported in US12509437B2, “Substituted thiophene carboxamides and derivatives thereof as microbicides” (Bayer Aktiengesellschaft, priority 2019, dated 2025).

Key:
[1] = tested on: Uromyces appendiculatus; assay: In vivo preventive test on Uromyces appendiculatus (bean rust); conditions: 240 h, sprayed 72 hours before inoculation, evaluated 10 days after inoculation, read-out: efficacy; for pest or weed control at 31 ppm: 31 ppm of active ingredient; for pest or weed control at 125 ppm: 125 ppm of active ingredient
Procedure, shortened: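 Young bean plants sprayed with compound in acetone/DMSO/Tween diluted in water, then inoculated 72 h later with spore suspension. Incubated 24 h at 20° C., 100% RH, then 9 days at 20° C., 70-80% RH. Efficacy scored 10 days post-inoculation, 0% = untreated-control level, 100% = no disease.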

[2] = tested on: Pseudomonas syringae pv. tomato; assay: In vivo preventive test on Pseudomonas syringae pv. tomato (bacterial speck on tomato); conditions: 125 ppm of active ingredient, sprayed 72 hours before inoculation, evaluated 5 or 6 days after inoculation, read-out: efficacy
Method: The tested active ingredients were prepared by homogenization in a mixture of acetone/Dimethyl sulfoxide/Tween®, and then diluted with water to obtain the desired active material concentration.
The young plants of tomato were treated by spraying the active ingredient prepared as described above. Control plants were treated only with an aqueous solution of acetone/Dimethyl sulfoxide/Tween®.
After 72 hours, the plants were contaminated by spraying the leaves with an aqueous bacteria suspension of Pseudomonas syringae pv. tomato. The contaminated tomato plants were incubated for 4 days in saturated atmosphere at 22° C. day/20° C. night−70% HR and then for 1 or 2 days at 22° C. day/20° C. night at 70-80% relative humidity.
The test was evaluated 5 or 6 days after the inoculation. 0% means an efficacy which corresponds to that of the control plants while an efficacy of 100% means that no disease was observed.

[3] = LogP by HPLC on reversed phase columns (EEC directive 79/831 Annex V.A8); type: physicochemical; conditions: reversed phase HPLC columns; method [a]
Procedure, shortened: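 Reversed-phase HPLC, calibrated with straight-chain alkan-2-ones (C3–C16) of known LogP; values by linear interpolation of retention times between successive alkanones. Multiple values from one method are joined by "+"; lambda-max taken from 200–400 nm UV spectra at chromatographic peaks.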

[4] = tested on: Peronospora parasitica; assay: In vivo preventive test on Peronospora parasitica (Crucifer downy mildew) on cabbage; conditions: Hyaloperonospora parasitica, 120 h, sprayed 72 hours before inoculation, evaluated 5 days after inoculation, read-out: efficacy; for pest or weed control at 31 ppm: 31 ppm of active ingredient; for pest or weed control at 125 ppm: 125 ppm of active ingredient
Procedure, shortened: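 Young cabbage plants were sprayed with compound in aqueous acetone/DMSO/Tween, then inoculated 72 h later with P. parasitica spores and held 5 days at 20 °C, 100% RH. Efficacy scored 5 days post-inoculation: 0% equals solvent-treated controls, 100% means no disease.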

[5] = tested on: Colletotrichum lindemuthianum; assay: In vivo preventive test on Colletotrichum lindemuthianum (Anthracnose on bean); conditions: Colletotrichum lindemuthianum, 144 h, sprayed 72 hours before inoculation, evaluated 6 days after inoculation, read-out: efficacy
Procedure, shortened: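 Young bean plants were sprayed with compound in acetone/DMSO/Tween diluted in water, then inoculated 72 h later with C. lindemuthianum spores. Incubation was 24 h at 20 °C/100% RH, then 5 days at 20 °C/90% RH. Efficacy scored 6 days post-inoculation: 0% equals solvent-treated control, 100% means no disease.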

[6] = tested on: Xanthomonas campestris pv. campestris; assay: Xanthomonas campestris pv. campestris in vitro cell test; type: cell-based; conditions: 24 h of incubation, read-out: efficacy (inhibition of bacteria growth; no direct activity); for inhibition at 5 ppm: 5 ppm of active ingredient; for inhibition at 20 ppm: 20 ppm of active ingredient
Procedure, shortened: (§1)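 Bacteria from liquid pre-culture diluted to set OD in LB broth and exposed to compounds dissolved in DMSO (final ≤1%). After 24 h, growth read by absorbance; inhibition derived relative to compound-free control wells.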

[7] = tested on: salicylate responsive promoter sequence of the PR1 (pathogenesis-related protein I) gene (AT2G14610); assay: Induction of defense gene expression in Arabidopsis thaliana (PR1 promoter-GFP reporter plants); type: in vivo; conditions: 72 h, 300 ppm, 3rd day after spraying, mock treated leaves set as 1.00, read-out: relative fluorescence value
Procedure, shortened: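 Transgenic A. thaliana carrying GFP under the salicylate-responsive PR1 promoter, grown five days, then sprayed with compounds. Whole-plant fluorescence imaged and quantified on day 3 post-spray, expressed relative to mock-treated leaf background set at 1.00.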

[8] = tested on: Pseudomonas syringae pv. tomato; assay: Pseudomonas syringae pv. tomato in vitro cell test; type: cell-based; conditions: 20 ppm of active ingredient, 24 h of incubation, read-out: efficacy (inhibition of bacteria growth; no direct activity)
Procedure, shortened: as §1

[9] = tested on: Alternaria alternata; assay: Alternaria alternata in vitro cell test; type: cell-based; conditions: 120 h, 5 days incubation, read-out: efficacy (inhibition of fungal growth; no direct activity); for inhibition at 5 ppm: 5 ppm of active ingredient; for inhibition at 20 ppm: 20 ppm of active ingredient
Procedure, shortened: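 A. alternata spores in glucose/peptone/yeast-extract liquid medium were exposed to DMSO-solubilized compound (final DMSO ≤1%). After 5 days incubation, mycelium growth read spectrometrically; inhibition derived from absorbance relative to fungicide-free control wells.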

[10] = tested on: Colletotrichum lindemuthianum; assay: Colletotrichum lindemuthianum in vitro cell test; type: cell-based; conditions: 144 h, 5 ppm of active ingredient, 6 days incubation, read-out: efficacy (inhibition of fungal growth; no direct activity)
Procedure, shortened: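 C. lindemuthianum spore suspension grown in liquid glucose/peptone/yeast-extract medium with compound (final DMSO ≤1%). After 6 days, mycelial growth measured by absorbance; inhibition calculated versus fungicide-free control wells.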

SMILES	pest or weed control at 31 ppm [1] [%]	pest or weed control at 125 ppm [1] [%]	pest or weed control at 500 ppm ([1]; 500 ppm of active ingredient) [%]	pest or weed control at 125 ppm [2] [%]	chromatographic logP [3]	pest or weed control at 31 ppm [4] [%]	pest or weed control at 125 ppm [4] [%]	pest or weed control at 500 ppm ([4]; 500 ppm of active ingredient) [%]	pest or weed control at 500 ppm ([5]; 500 ppm of active ingredient) [%]	inhibition at 5 ppm [6] [%]	inhibition at 20 ppm [6] [%]	fold induction at 300 ppm [7]	inhibition at 20 ppm [8] [%]	inhibition at 5 ppm [9] [%]	inhibition at 20 ppm [9] [%]	inhibition at 5 ppm [10] [%]	pest or weed control at 31 ppm ([5]; 31 ppm of active ingredient) [%]	pest or weed control at 125 ppm ([5]; 125 ppm of active ingredient) [%]
CCOC(=O)C(NC(=O)c1sc(Cl)c(Cl)c1C)C1CC1 (stereo not shown) [I.083]	90 to 100	90 to 100	90 to 100	70 to 79	3.76	90 to 100	90 to 100	90 to 100	90 to 100	≤ 30	≤ 30	> 2	≤ 30	≤ 30	≤ 30	≤ 30	–	–
COC(=O)C(NC(=O)c1sc(Cl)c(Cl)c1C)c1cccs1 (stereo not shown) [I.165]	90 to 100	90 to 100	–	80 to 89	3.81	90 to 100	90 to 100	–	–	≤ 30	≤ 30	> 2	≤ 30	≤ 30	≤ 30	≤ 30	80 to 89	80 to 89
